Measured values from PubChem BioAssay (NCI).
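How tested: cells in 96-well plates exposed to compound for 48 hours at five concentrations. GI50 = concentration required for 50% inhibition of growth. At the TGI there is no net growth.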

Key:
Experiment in all cases: NCI-60 cell line screen, 48 h
786-0 renal = test system: 786-0 renal
A549 NSCLC = test system: A549 NSCLC
ACHN renal = test system: ACHN renal
DU-145 prostate = test system: DU-145 prostate
HCT-15 colon = test system: HCT-15 colon
HS 578T breast = test system: HS 578T breast
MDA-MB-231 breast = test system: MDA-MB-231 breast
SK-OV-3 ovarian = test system: SK-OV-3 ovarian
SNB-19 CNS = test system: SNB-19 CNS
SR leukemia = test system: SR leukemia

Structure (SMILES)	TGI (786-0 renal)	TGI (A549 NSCLC)	TGI (ACHN renal)	TGI (DU-145 prostate)	TGI (HCT-15 colon)	TGI (HS 578T breast)	TGI (MDA-MB-231 breast)	TGI (SK-OV-3 ovarian)	TGI (SNB-19 CNS)	TGI (SR leukemia)	GI50 (786-0 renal)	GI50 (A549 NSCLC)	GI50 (ACHN renal)	GI50 (DU-145 prostate)	GI50 (HCT-15 colon)	GI50 (HS 578T breast)	GI50 (MDA-MB-231 breast)	GI50 (SK-OV-3 ovarian)	GI50 (SNB-19 CNS)	GI50 (SR leukemia)
O=[n+]1cnn([O-])c2ccccc21	42.1 µM	> 100 µM	36.9 µM	> 100 µM	35.6 µM	> 100 µM	31 µM	> 100 µM	> 100 µM	> 100 µM	–	–	–	–	–	–	–	–	–	–
NC(=O)Cc1ccccc1Oc1nccc(-c2c(-c3ccc(F)cc3)ncn2C2CCNCC2)n1	> 25 µM	> 25 µM	> 25 µM	> 25 µM	> 25 µM	> 25 µM	> 25 µM	> 25 µM	> 25 µM	> 25 µM	> 25 µM	> 25 µM	> 25 µM	> 25 µM	> 25 µM	> 9.24 µM	> 25 µM	> 25 µM	> 25 µM	> 25 µM
O=C1OCC2=C1C(c1ccccc1)c1cc3c(cc1N2CCO)CCC3 (stereo not drawn)	> 14.5 µM	> 25 µM	> 25 µM	0.464 µM	> 25 µM	–	> 25 µM	8.73 µM	> 12.9 µM	> 25 µM	0.0988 µM	0.152 µM	0.148 µM	0.0778 µM	0.103 µM	0.0739 µM	0.689 µM	0.097 µM	0.119 µM	0.0762 µM
CC(C)[C@@H]1NC(=O)[C@]2(C)CSC(=N2)c2csc(n2)CNC(=O)C[C@@H](/C=C/CCS)OC1=O	> 100 µM	20.9 µM	9.12 µM	> 100 µM	> 100 µM	–	> 47.4 µM	0.228 µM	> 44.3 µM	> 100 µM	0.454 µM	0.0383 µM	1.75 µM	0.147 µM	5.12 µM	0.0471 µM	0.317 µM	0.0204 µM	0.168 µM	0.0563 µM
O=C(/C=C/c1ccccc1O)c1ccccc1	29.7 µM	36.1 µM	24.2 µM	18.7 µM	24.7 µM	30.4 µM	29.9 µM	> 100 µM	25.3 µM	5.8 µM	14.4 µM	17 µM	11 µM	5.86 µM	10.6 µM	5.67 µM	12.8 µM	31.5 µM	12.6 µM	1.83 µM
O=C(Nc1cccnc1)c1cccs1	> 100 µM	> 100 µM	> 100 µM	> 100 µM	> 100 µM	> 100 µM	> 100 µM	> 100 µM	> 100 µM	> 100 µM	6.77 µM	5.6 µM	8.98 µM	4.6 µM	0.658 µM	> 100 µM	81.3 µM	5.57 µM	9.56 µM	8.47 µM
COC(=O)c1c2c(c[n+]([O-])c1C)C(=O)C(NCc1ccccc1)=CC2=O	3.8 µM	3.61 µM	2.2 µM	2.25 µM	1.53 µM	8.13 µM	2.27 µM	4.79 µM	2.77 µM	> 100 µM	1.69 µM	1.12 µM	1.02 µM	1.05 µM	0.354 µM	2.4 µM	0.333 µM	1.98 µM	1.46 µM	1.29 µM
C[CH2][Sn]1([CH2]C)[O]C2C(O)OC(CO)C(O)C2[O]1 (stereo not drawn)	68.1 µM	> 100 µM	> 100 µM	> 100 µM	> 100 µM	> 100 µM	28.6 µM	> 100 µM	> 100 µM	39.6 µM	23 µM	> 100 µM	40.3 µM	86.8 µM	60.3 µM	25.9 µM	14.4 µM	> 100 µM	50.5 µM	13.3 µM
Clc1ccc(N/N=C/c2ccccn2)nc1	> 100 µM	> 100 µM	> 100 µM	> 100 µM	> 100 µM	> 100 µM	> 100 µM	> 100 µM	> 100 µM	> 52.8 µM	0.339 µM	0.518 µM	0.379 µM	0.445 µM	0.333 µM	3.39 µM	0.463 µM	0.508 µM	0.674 µM	0.339 µM
Cc1ccccc1NC(=O)N/C(N)=N/c1nc2ccccc2s1	> 100 µM	> 100 µM	> 100 µM	> 100 µM	> 100 µM	> 100 µM	> 100 µM	> 100 µM	> 100 µM	> 100 µM	0.0646 µM	0.0871 µM	0.0729 µM	0.0833 µM	0.0434 µM	0.0494 µM	0.892 µM	0.416 µM	0.104 µM	0.0392 µM
O=C(Nc1cccc(-n2cc(-c3ccncc3)c(-c3cc(O)cc(Cl)c3)n2)c1)Nc1ccc(Cl)c(Cl)c1	3.71 µM	7.54 µM	8.71 µM	10.1 µM	8.04 µM	> 100 µM	7.7 µM	9.43 µM	19 µM	4.24 µM	1.48 µM	1.96 µM	2.21 µM	2.8 µM	2.1 µM	3.23 µM	1.01 µM	3.4 µM	3.18 µM	1.31 µM
CCCCCCCCCCCCCCCCCC(=O)[O][Sn]([CH2]CCC)([CH2]CCC)[CH2]CCC	0.305 µM	0.317 µM	0.334 µM	0.271 µM	0.38 µM	0.752 µM	0.361 µM	0.288 µM	0.338 µM	0.388 µM	0.152 µM	0.153 µM	0.163 µM	0.136 µM	0.146 µM	0.217 µM	0.125 µM	0.143 µM	0.167 µM	0.0738 µM
C=C1C(=O)O[C@H]2[C@H]1CC/C(COC(=O)NCc1c[nH]c3ccc(OC)cc13)=C\CC[C@@]1(C)O[C@@H]21	1.8 µM	15 µM	2.01 µM	2.83 µM	2.73 µM	16.2 µM	4.3 µM	25.2 µM	18.4 µM	4.38 µM	0.445 µM	3.26 µM	0.729 µM	1.35 µM	1.34 µM	2.75 µM	1.92 µM	12.7 µM	4.76 µM	0.331 µM
O=C(c1ccc(F)c(F)c1Nc1ccc(I)cc1F)N1CC(O)([C@H]2CCCCN2)C1	21.7 µM	18 µM	15.8 µM	22.3 µM	19.3 µM	33.7 µM	5.26 µM	21.1 µM	22.8 µM	17.8 µM	7.72 µM	2.37 µM	1.86 µM	9.76 µM	4.81 µM	9.74 µM	0.579 µM	8.15 µM	8.08 µM	3.94 µM
N#Cc1cc(-c2ccccc2)[nH]c1-c1nccc2ccccc12	> 100 µM	> 100 µM	> 100 µM	> 100 µM	> 100 µM	> 100 µM	> 100 µM	> 100 µM	> 100 µM	> 100 µM	26.9 µM	13.9 µM	18.5 µM	32.3 µM	20.6 µM	37.6 µM	19.4 µM	17.8 µM	31.3 µM	5.72 µM
CCCCC(SC(=S)N(CC)CC)C(=O)Nc1nc(CC(=O)OCC)cs1 (stereo not drawn)	> 100 µM	> 100 µM	> 100 µM	> 100 µM	> 100 µM	> 100 µM	> 100 µM	> 100 µM	> 100 µM	> 100 µM	> 100 µM	30.8 µM	67.3 µM	98.3 µM	48.5 µM	47.9 µM	47.8 µM	75.6 µM	56.9 µM	29.4 µM
COc1cc(C2=Nc3c/c(=C\c4c(O)[nH]c5ccc(Cl)cc45)ccc3=N2)cc(OC)c1OC	9.91 µM	10.7 µM	24.2 µM	5.19 µM	11.6 µM	5.86 µM	6.26 µM	32.5 µM	13.5 µM	5.05 µM	2.89 µM	2.87 µM	6.67 µM	2.34 µM	3.27 µM	1.69 µM	1.5 µM	16.2 µM	4.55 µM	1.94 µM
Oc1ccc(Cl)cc1Cc1cc(Cl)cc(Cc2cc(Cl)ccc2O)c1O	11.3 µM	10.6 µM	7.64 µM	13 µM	12.2 µM	7.71 µM	8.83 µM	8.5 µM	14.6 µM	11.6 µM	–	–	–	–	–	–	–	–	–	–
CN(C)c1cc2c(Nc3ccc4nc(Cc5ccccc5)[nH]c4c3)ncnc2cn1	> 20.3 µM	> 25 µM	> 25 µM	> 25 µM	> 25 µM	> 25 µM	> 25 µM	> 25 µM	> 25 µM	> 25 µM	12.5 µM	11.8 µM	11.8 µM	12.1 µM	> 16.6 µM	> 17.6 µM	> 17.4 µM	1.85 µM	> 25 µM	8.79 µM
